Laboratory results reported in patent publication US11970474B2, “Substituted benzodiazoles and use thereof in therapy” (THOMAS HELLEDAYS STIFTELSE FÖR MEDICINSK FORSKNING, priority 2018, dated 2024).
pEC50: −log10 of the molar value.

Columns and labels:
Type in all cases: cell-based
[1] = test system: VH10; assay: Cell viability assay (resazurin); conditions: 120 h, Normal, fibroblast, five day incubation
Procedure: (§1) A dilution series of compound or vehicle are transferred to 96-well plates. Cells are seeded into the plate (500-10,000 cells/well) in suitable media and incubated for five days in 5% CO2 at 37° C. Thereafter, resazurin (diluted in suitable medium or PBS) are added to a final concentration 10 μg/ml resazurin at 37° C. for 2-4 hours before measuring the fluorescence (Ex544/Em590), essentially as described (Riss, Terry L. et al., “Cell Viability Assays.” In Assay Guidance Manual, ed. G. Sitta Sittampalam, et al. Bethesda (Md.): Eli Lilly & Company and the National Center for Advancing Translational Sciences (2004) http://www.ncbi.nlm.nih.gov/books/NBK144065/).
(§2) The compounds to be tested are nano-dispensed in duplicate in 11 concentrations, directly in 384-well cell plates, with a final DMSO concentration<1%. Cells are seeded in cell plates, pre-dispensed with compounds (200-2500 cells/well in 50 μl). After three or five days culture in 5% CO2, 37° C., resazurin diluted in PBS is added, 10 μl/well, to a final concentration of 10 μg/ml and cells are incubated 2-4 hours before measuring fluorescence (Ex544/Em590), as described (ibid.). Results obtained for selected example compounds described herein on cancer- and non-transformed cell lines are provided in the table below (Table 3) and summarized in FIG. 1. Where indicated, combination indexes was measured with CompuSyn software (www.compusyn.com) by the method of Chou-Talalay (Chou, Ting-Chao., Cancer Research, 70(2), 440-46 (2010)).

[2] = test system: U2OS; assay: Cell viability assay (resazurin); conditions: Homo sapiens, 120 h, Cancer, Osteosarcoma, five day incubation
Procedure: as §1, §2

[3] = test system: PL-21; assay: Cell viability assay (resazurin); conditions: 120 h, Cancer, acute myeloid leukemia, five day incubation
Procedure: as §1, §2

[4] = test system: SaOS2; assay: Cell viability assay (resazurin); conditions: Homo sapiens, SAOS-2, 120 h, Cancer, Osteosarcoma, five day incubation
Procedure: as §1, §2

[5] = test system: HeLa; assay: Cell viability assay (resazurin); conditions: Homo sapiens, 120 h, Cancer, Cervical adenocarcinoma, five day incubation
Procedure: as §1, §2

[6] = test system: BJ Ras; assay: Cell viability assay (resazurin); conditions: 120 h, Cancer, Transformed fibroblast, five day incubation
Procedure: as §1, §2

[7] = test system: HCT116; assay: Cell viability assay (resazurin); conditions: Homo sapiens, HCT-116, 120 h, Cancer, Colorectal Carcinoma, five day incubation
Procedure: as §1, §2

[8] = test system: Daudi; assay: Cell viability assay (resazurin); conditions: Homo sapiens, 120 h, Cancer, Burkitt's Lymphoma, five day incubation
Procedure: as §1, §2

[9] = test system: HCT116 + Chr3; assay: Cell viability assay (resazurin); conditions: Homo sapiens, HCT-116, 120 h, Cancer, Colorectal Carcinoma, five day incubation
Procedure: as §1, §2

[10] = test system: A3; assay: Cell viability assay (resazurin); conditions: 120 h, Cancer, Acute lymphoblastic leukemia, five day incubation
Procedure: as §1, §2

[11] = test system: Raji; assay: Cell viability assay (resazurin); conditions: Homo sapiens, 120 h, Cancer, Burkitt's Lymphoma, five day incubation
Procedure: as §1, §2

[12] = test system: H460; assay: Cell viability assay (resazurin); conditions: Homo sapiens, NCI-H460, 120 h, Cancer, large cell lung carcinoma, five day incubation
Procedure: as §1, §2

[13] = test system: CCL2; assay: Mouse CCL2 assay in MLE12 cells; conditions: Mus musculus, MLE12, 30 h, MLE12 cells; TNF-α 20 ng/ml; supernatant after 30 hours; HTRF; read-out: CCL2 (EC50)
In short: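 CCL2 in supernatants was quantified by two-antibody HTRF FRET, read at 620 and 665 nm after overnight RT incubation, with IC50 derived from delta ratios. Cells were SV40-transformed mouse MLE12, treated with duplicate 6-point compound series for 1 h before 30 h TNF-α (20 ng/ml final) stimulation.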

| Compound | pEC50 [1] | pEC50 [2] | pEC50 [3] | pEC50 [4] | pEC50 [5] | pEC50 [6] | pEC50 [7] | pEC50 [8] | pEC50 [9] | pEC50 [10] | pEC50 [11] | pEC50 [12] | pEC50 [13] |
| --- | --- | --- | --- | --- | --- | --- | --- | --- | --- | --- | --- | --- | --- |
| O=C(Nc1ccc(I)cc1)N1CCC(n2c(=O)[nH]c3c(Br)cccc32)CC1 [Example 13, 4-(4-Bromo-2-oxo-2,3-dihydro-1H-1,3-benzodiazol-1-yl)-N-(4-iodophenyl)piperidine-1-carboxamide] | 4.49 | 4.70 | 4.82 | 4.68 | 4.66 | 5.32 | 4.74 | 4.89 | 4.68 | 4.96 | 4.60 | 5.00 | 4.73 |
| Cc1cc(NC(=O)N2CCC(n3c(=O)[nH]c4c(Br)cccc43)CC2)ccc1I [Example 50, 4-(4-Bromo-2-oxo-2,3-dihydro-1H-1,3-benzodiazol-1-yl)-N-(4-iodo-3-methylphenyl)piperidine-1-carboxamide] | 4.32 | 4.60 | 4.74 | 4.70 | 4.46 | 4.85 | 4.54 | 4.92 | 4.70 | 5.01 | 4.64 | 4.77 | 4.81 |
| O=C(Nc1ccc(Cl)c(Cl)c1)N1CCC(n2c(=O)[nH]c3c(-c4ccc(CO)nc4)cccc32)CC1 [Example 28, N-(3,4-dichlorophenyl)-4-{4-[6-(hydroxymethyl)pyridin-3-yl]-2-oxo-2,3-dihydro-1H-1,3-benzodiazol-1-yl}piperidine-1-carboxamide] | 4.68 | 4.80 | 5.00 | 4.80 | 4.80 | 4.82 | 4.82 | 5.00 | 4.77 | 5.10 | 4.70 | 4.85 | 4.77 |
